Data published in patent publication US5998397A, “Gallium complexes of 3-Hydroxy-4-pyrones to treat or prevent bone disease” (priority 1998, dated 1999).

Key:
[1] = Solubility in distilled deionized water
Source text: Under some conditions, water may also be incorporated into the structure.

[2] = Oral bioavailability study in rabbits (serum gallium by graphite furnace atomic absorption); format: in vivo, New Zealand white rabbits; conditions: oral gavage; for Mean gallium content of rabbit serum: 4 ml per kg, 10 mg elemental gallium per 4 ml, fasted 18 hours, 3 animals
Protocol: A test of the oral bioavailability of the 3:1 ethyl maltol:gallium complex in rabbits was conducted. In this test, the complex was given to rabbits and compared to a solution of gallium nitrate. Six female New Zealand white rabbits weighing between 2.68 and 2.91 kg were used, and were not fed for 18 hours before starting the experiment. A suspension of the 3:1 gallium ethyl maltol complex in double distilled water was prepared with a concentration of 10 mg elemental gallium per 4 ml of suspension. […] A small amount of solid sodium carbonate was added to the latter solution to bring the pH up to about 6. Each of the two solutions was given to three rabbits by oral gavage (through a tube inserted through the mouth to the stomach) in the amount of 4 ml per kg of body weight. The stomach tubes were flushed by three ml of water following administration of the solutions.
Six ml of blood was taken from each, rabbit at 1 hour, 2 hours, 4 hours, 8 hours, and 24 hours following administration of the solutions, and the serum separated and frozen. Control samples of blood were taken 24 hours earlier. The frozen serum samples were then sent to an independent testing laboratory for determination of the gallium contents by graphite furnace atomic absorption analysis. The testing laboratory received numbered serum samples, and never had any knowledge of the experimental conditions used to produce the samples. Due to uncertainties in the analytical procedures for gallium in serum, the relative proportions of gallium in the serum samples are considered more significant than the actual reported concentrations.

[3] = format: physicochemical
Protocol: The complex was studied at two concentrations in double distilled deionized water: […]. The pH was adjusted by adding either 1N HCl or 1N Na2 CO3. The stability of the complex was determined using ultraviolet spectroscopy over the region 200-450 nm at 25° C. […] An isobesic point occurs over much of the pH range at about 290 nm. In the very dilute solutions (2.5×10^-6 M), the neutral 3:1 complex appears to be stable from about pH 4.5 to 9.5. For the less dilute solutions (1.0×10^-2 M), the determination was more difficult due to the very high absorbance.

rabbits = conditions: rabbit, in vivo; cited from earlier work

Row | SMILES | Solubility ([1]; distilled deionized water, 23° C.) | Mean gallium content of rabbit serum ([2]; 1 hour) [ng/mL] | Mean gallium content of rabbit serum ([2]; 2 hours) [ng/mL] | Mean gallium content of rabbit serum ([2]; 4 hours) [ng/mL] | Mean gallium content of rabbit serum ([2]; 8 hours) [ng/mL] | Mean gallium content of rabbit serum ([2]; 24 hours) [ng/mL] | Oral absorption compared with gallium nitrate ([2]; rabbits, equal volume and gallium concentration, stomach acid not counteracted) | Solubility ([1]; water) | pH stability region of the neutral 3:1 complex (in words) [3] | Neurotoxicity (rabbits)
1 | CCc1occc(=O)c1[O][Ga]([O]c1c(CC)occc1=O)[O]c1c(CC)occc1=O [Gallium Ethyl Maltol, 3:1 complex of ethyl maltol and gallium] | about 5 millimolar | 90 | 274 | 260 | 212 | 84 | absorbed in significantly higher amounts than the gallium nitrate suspension |  |  | 
2 | Cc1occc(=O)c1[O-].Cc1occc(=O)c1[O-].Cc1occc(=O)c1[O-].[Ga+3] [Gallium Maltol] |  |  |  |  |  |  |  | about 24 millimolar | very similar to that of the highly dilute solution, possibly slightly wider | 
3 | Cc1occc(=O)c1[O][Al]([O]c1c(C)occc1=O)[O]c1c(C)occc1=O [aluminum maltol complex] |  |  |  |  |  |  |  |  |  | highly neurotoxic
4 | O=[N+]([O-])[O-].O=[N+]([O-])[O-].O=[N+]([O-])[O-].[Ga+3] [gallium nitrate, reference compound] |  | 51 | 99 | 118 | 103 | 64 |  |  |  | 
